Measured values: ChEMBL document CHEMBL1150269, “Structural origin of selectivity in class II-selective histone deacetylase inhibitors” (J Med Chem, 2008)
pKi: −log10 of the molar value.

What was measured:
Histone deacetylase 1 = Histone deacetylase 1 (Homo sapiens, UniProt Q13547); test: Inhibition of HDAC1
[1] = molecular target: T1, Protein deacetylase HDAC6 (Homo sapiens, UniProt Q9UBN7); test: Inhibition of HDAC6
T1 sequence (Q9UBN7 whole entry): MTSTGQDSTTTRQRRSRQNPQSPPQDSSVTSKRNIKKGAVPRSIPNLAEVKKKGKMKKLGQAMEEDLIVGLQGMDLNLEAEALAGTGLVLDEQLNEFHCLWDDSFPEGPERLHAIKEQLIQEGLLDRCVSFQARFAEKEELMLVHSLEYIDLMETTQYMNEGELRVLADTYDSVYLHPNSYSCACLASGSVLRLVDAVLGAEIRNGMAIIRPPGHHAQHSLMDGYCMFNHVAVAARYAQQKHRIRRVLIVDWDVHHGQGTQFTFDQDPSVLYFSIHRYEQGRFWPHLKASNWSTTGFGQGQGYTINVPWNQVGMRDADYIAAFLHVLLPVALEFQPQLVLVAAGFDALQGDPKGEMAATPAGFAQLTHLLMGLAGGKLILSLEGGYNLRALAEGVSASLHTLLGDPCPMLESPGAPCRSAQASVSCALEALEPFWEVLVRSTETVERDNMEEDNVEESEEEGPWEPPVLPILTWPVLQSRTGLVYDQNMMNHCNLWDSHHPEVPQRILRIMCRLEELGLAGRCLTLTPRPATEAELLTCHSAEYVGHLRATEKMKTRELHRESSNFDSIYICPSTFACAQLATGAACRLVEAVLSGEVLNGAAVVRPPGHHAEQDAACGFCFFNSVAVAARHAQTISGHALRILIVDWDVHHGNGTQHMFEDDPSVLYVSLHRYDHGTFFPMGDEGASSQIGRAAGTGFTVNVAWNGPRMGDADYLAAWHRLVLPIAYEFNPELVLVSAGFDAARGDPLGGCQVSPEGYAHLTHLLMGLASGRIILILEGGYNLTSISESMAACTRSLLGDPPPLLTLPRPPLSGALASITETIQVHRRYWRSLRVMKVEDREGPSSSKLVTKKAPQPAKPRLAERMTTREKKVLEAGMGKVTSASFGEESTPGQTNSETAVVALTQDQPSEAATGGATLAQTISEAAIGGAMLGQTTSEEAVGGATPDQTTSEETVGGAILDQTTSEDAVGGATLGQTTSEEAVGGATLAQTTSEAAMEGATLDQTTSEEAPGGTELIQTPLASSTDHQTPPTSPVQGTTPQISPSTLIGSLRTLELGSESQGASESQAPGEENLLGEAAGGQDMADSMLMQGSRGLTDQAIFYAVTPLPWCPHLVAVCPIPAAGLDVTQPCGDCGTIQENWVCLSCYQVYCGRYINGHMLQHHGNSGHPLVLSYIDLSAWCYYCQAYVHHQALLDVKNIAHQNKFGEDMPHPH

Histone deacetylase 9 = Histone deacetylase 9 (Homo sapiens, UniProt Q9UKV0); test: Inhibition of HDAC9
Chain of Histone deacetylase 9 (Q9UKV0 whole entry): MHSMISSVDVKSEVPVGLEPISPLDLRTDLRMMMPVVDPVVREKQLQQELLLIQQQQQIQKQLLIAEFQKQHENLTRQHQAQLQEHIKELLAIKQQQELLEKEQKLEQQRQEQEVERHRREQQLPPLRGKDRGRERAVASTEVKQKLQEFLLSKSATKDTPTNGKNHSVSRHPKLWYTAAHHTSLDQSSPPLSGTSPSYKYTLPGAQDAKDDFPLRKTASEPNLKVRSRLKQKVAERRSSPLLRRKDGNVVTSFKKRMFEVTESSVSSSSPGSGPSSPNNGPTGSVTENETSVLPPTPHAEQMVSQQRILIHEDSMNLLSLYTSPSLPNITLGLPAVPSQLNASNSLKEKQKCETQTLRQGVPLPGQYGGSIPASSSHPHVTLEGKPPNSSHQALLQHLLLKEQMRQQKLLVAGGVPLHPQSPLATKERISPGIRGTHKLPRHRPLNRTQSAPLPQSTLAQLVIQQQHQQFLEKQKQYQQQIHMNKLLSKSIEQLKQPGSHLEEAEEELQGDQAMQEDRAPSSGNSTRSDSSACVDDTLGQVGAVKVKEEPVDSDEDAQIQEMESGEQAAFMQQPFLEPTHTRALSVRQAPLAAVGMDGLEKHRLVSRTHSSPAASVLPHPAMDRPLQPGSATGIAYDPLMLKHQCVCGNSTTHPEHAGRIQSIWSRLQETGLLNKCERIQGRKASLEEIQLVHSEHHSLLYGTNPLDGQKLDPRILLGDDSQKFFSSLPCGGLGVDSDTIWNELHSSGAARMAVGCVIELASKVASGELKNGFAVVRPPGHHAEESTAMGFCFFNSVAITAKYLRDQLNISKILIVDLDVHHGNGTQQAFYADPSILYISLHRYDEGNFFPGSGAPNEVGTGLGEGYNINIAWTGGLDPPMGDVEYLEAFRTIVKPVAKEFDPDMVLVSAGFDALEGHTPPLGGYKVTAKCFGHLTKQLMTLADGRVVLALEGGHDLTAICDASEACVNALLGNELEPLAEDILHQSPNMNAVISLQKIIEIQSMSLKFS

Chain of Histone deacetylase 1 (Q13547 whole entry): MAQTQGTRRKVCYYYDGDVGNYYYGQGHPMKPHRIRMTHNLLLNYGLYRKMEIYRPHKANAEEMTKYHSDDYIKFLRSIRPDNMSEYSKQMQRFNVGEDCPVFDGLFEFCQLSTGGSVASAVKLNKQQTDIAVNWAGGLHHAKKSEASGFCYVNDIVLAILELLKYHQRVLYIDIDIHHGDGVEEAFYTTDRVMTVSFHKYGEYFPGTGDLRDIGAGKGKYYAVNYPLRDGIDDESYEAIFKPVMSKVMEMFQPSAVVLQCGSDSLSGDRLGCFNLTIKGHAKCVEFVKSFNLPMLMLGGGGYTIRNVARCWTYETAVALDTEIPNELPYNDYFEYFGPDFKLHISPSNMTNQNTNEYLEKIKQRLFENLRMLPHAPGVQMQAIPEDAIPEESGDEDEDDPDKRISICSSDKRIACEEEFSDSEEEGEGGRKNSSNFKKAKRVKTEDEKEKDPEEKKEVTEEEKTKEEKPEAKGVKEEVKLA

pKi (Histone deacetylase 1): 7.06 | pKi [1]: 7.55 | pKi (Histone deacetylase 9): 5.21
SMILES: O=C(CCCCCCC(=O)Nc1ccc([C@H]2O[C@@H](CSc3ccncc3)C[C@@H](c3ccccc3)O2)cc1)NO
